Results as given in patent US20160102052A1, “Use of Cysteamine in Treating Infections caused by Yeasts/Moulds” (priority 2014, published 2016).
Like-named read-outs stand apart in the source and are kept apart here.

System: Exophiala dermatitidis CA01
Assay: Broth microdilution chequerboard analysis of Lynovex (NM001) in combination with clinical antifungals
Assay type: cell-based
Conditions: for MIC: Exophiala dermatitidis, CA01, 72 h, antifungal in isolation, read-out: Antifungal MIC100; for MIC / Antifungal MIC100 in Combination: 72 h; for MIC / Antifungal MIC100 in Combination / Antifungal MIC50 in Combination: 35° C.; for FICI: antifungal with Lynovex (NM001), <0.5 Synergy, 0.5-1 Additive, >1 Indifference; for Antifungal MIC100 in Combination / Antifungal MIC50 in Combination: in combination with Lynovex (NM001)
Summary of the method: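 CLSI chequerboard broth microdilution in RPMI-1640 combining doubling dilutions of Lynovex (NM001) with fluconazole, itraconazole, caspofungin or amphotericin B against E. dermatitidis CA01 conidia. Incubated at 35 °C in humid conditions, OD530 read at 72–144 h; FIC index from MIC100 at 72 h and MIC50 at later times.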

Structure (SMILES) | MIC (GEOMEAN) | MIC (MEAN) | MIC (Range) | FICI (GEOMEAN, MIC50, 96 h) | FICI (GEOMEAN, MIC50, 120 h) | FICI (GEOMEAN, MIC50, 144 h) | FICI (GEOMEAN, MIC100, 72 h) | Antifungal MIC100 in Combination (GEOMEAN) | Antifungal MIC50 in Combination (GEOMEAN, 96 h) | Antifungal MIC50 in Combination (GEOMEAN, 120 h) | Antifungal MIC50 in Combination (GEOMEAN, 144 h) | FICI (MEAN, MIC50, 96 h) | FICI (MEAN, MIC50, 120 h) | FICI (MEAN, MIC50, 144 h) | FICI (MEAN, MIC100, 72 h) | Antifungal MIC100 in Combination (MEAN) | Antifungal MIC50 in Combination (MEAN, 96 h) | Antifungal MIC50 in Combination (MEAN, 120 h) | Antifungal MIC50 in Combination (MEAN, 144 h) | Antifungal MIC100 in Combination (Range) | further results
OC(Cn1cncn1)(Cn1cncn1)c1ccc(F)cc1F [Fluconazole] | 250 mg/L | 250 mg/L | 250 mg/L | 0.44 (6) | 0.41 (4) | 0.53 (4) | 0.42 (3) | 25 mg/L | 35 mg/L | 44 mg/L | 63 mg/L | 0.45 (6) | 0.42 (4) | 0.55 (4) | 0.43 (3) | 34 mg/L | 51 mg/L | 59 mg/L | 98 mg/L | 7.81 to 62.5 mg/L | Antifungal MIC50 in Combination (Range, 96 h): 7.81 to 125 mg/L; Antifungal MIC50 in Combination (Range, 120 h): 15.63 to 125 mg/L; Antifungal MIC50 in Combination (Range, 144 h): 15.63 to 250 mg/L
CCC(C)n1ncn(-c2ccc(N3CCN(c4ccc(OCC5COC(Cn6cncn6)(c6ccc(Cl)cc6Cl)O5)cc4)CC3)cc2)c1=O (stereo not shown) [Itraconazole] | 4.5 mg/L | 4.7 mg/L | 4 to 8 mg/L | 0.27 (7) | 0.18 (5) | 0.18 (3) | 0.18 (5) | 0.14 mg/L | 0.37 mg/L | 0.19 mg/L | 0.20 mg/L | 0.32 (7) | 0.20 (5) | 0.19 (3) | 0.19 (5) | 0.24 mg/L | 0.74 mg/L | 0.33 mg/L | 0.27 mg/L | 0.03 to 0.5 mg/L | Antifungal MIC50 in Combination (Range, 96 h): 0.06 to 2 mg/L; Antifungal MIC50 in Combination (Range, 120 h): 0.06 to 1 mg/L; Antifungal MIC50 in Combination (Range, 144 h): 0.06 to 0.5 mg/L
